What was measured:
LTD4 = assay: Leukotriene (LTD4) Induced arrhythmia and Hypertension Test; assay type: in vivo, guinea pig (Hartley); conditions: 100 mg/kg po, 3 hour pretreatment, conscious guinea pigs; for No. Animals with Abnormal Beat/No. Tested: first two minutes after LTD4, saline control 12/12; for ↑ABP (increase in blood pressure after LTD4): saline control 30 ± 4; for ↓ABP (decrease in blood pressure after LTD4): saline control -45 ± 4
Procedure: (6) Leukotriene (LTD4) Induced arrhythmia and Hypertension Test
Male Hartley guinea pigs are anesthetized with sodium pentobarbital and prepared for monitoring direct blood pressure and injecting drugs intravenously by catheterizing the right carotid artery and right jugular vein. Blood pressure, heart rate, and Lead II ECG are monitored in the conscious animal 24 hours later.
The oral activity of a drug is evaluated by pretreating animals 3 hours before the LTD4 challenge.
Intravenous administration of LTD4 2.5 μg/kg) is associated with an increase in blood pressure lasting approximately 1-2 minutes followed by a decrease lasting approximately 5-15 minutes. Abnormal beats consisting of premature ventricular contractions, ST elevation or depression, atrioventricular conduction block, or dissociated p waves begin during the rise in blood pressure; the peak effect occurs approximately 40 seconds after LTD4. The number of animals with abnormal beats within the first two minutes after the injection of LTD4 over the total number of animals tested is presented in Table III. During the hypotensive response, the animal usually collapses during the 2nd or 3rd minute after LTD4 and regains posture approximately 10 minutes after LTD4.

PAF [1] = assay: Inhibition of PAF Induced Guinea Pig Bronchoconstriction Test (Inhib. of PAF Broncho.); assay type: in vivo, guinea pig (Hartley strain); conditions: Cavia porcellus, iv; 1 mg/kg i.v. (1 min. pretreat)
Procedure: (3) Inhibition of PAF Induced Guinea Pig Bronchoconstriction Test (Inhib. of PAF Broncho.)
Male guinea pigs (Hartley strain) weighing 300 to 500 g are anesthetized with urethane (2 g/kg) intraperitoneally and a polyethylene cannula is inserted into the jugular vein for drug administration. Tracheal pressure is recorded from a cannula inserted in the trachea and connected to a Statham pressure transducer. Propranolol (0.1 mg/kg) is administered intravenously five minutes before challenge with synthetic PAF, the animal's skeletal muscles are then paralyzed with succinylcholine (1.2 mg/kg i.v.), and the animal is respirated using a Harvard small animal respirator operating at 40 breaths/min and 2.5 cc stroke volume. Under these conditions PAF induces a dose-dependent increase in ventilatory pressure over a dose range of 0.5 to 5 μg/kg i.v. For screening purposes animals are challenged with a single dose of PAF (10 μg/kg i.v.).
The peak increase in ventilatory pressure (cm H2 O) is recorded for three control animals and five drug-treated animals and the percent inhibition determined from the following formula [formula] Results obtained with representative compounds of the invention in this test are summarized hereinafter in Tables I and II.

[2] = target: T1, PAF binding to dog platelets (Canis lupus familiaris, UniProt A0A8I3NSH0); assay: PAF Radioreceptor Binding Assay (PAF Binding); conditions: inhibition of 3H-PAF binding to dog platelets, 10 min, room temperature
T1 construct: from tissue; host or cells: washed platelets from citrate-treated dog blood
T1 sequence (A0A8I3NSH0 1-343): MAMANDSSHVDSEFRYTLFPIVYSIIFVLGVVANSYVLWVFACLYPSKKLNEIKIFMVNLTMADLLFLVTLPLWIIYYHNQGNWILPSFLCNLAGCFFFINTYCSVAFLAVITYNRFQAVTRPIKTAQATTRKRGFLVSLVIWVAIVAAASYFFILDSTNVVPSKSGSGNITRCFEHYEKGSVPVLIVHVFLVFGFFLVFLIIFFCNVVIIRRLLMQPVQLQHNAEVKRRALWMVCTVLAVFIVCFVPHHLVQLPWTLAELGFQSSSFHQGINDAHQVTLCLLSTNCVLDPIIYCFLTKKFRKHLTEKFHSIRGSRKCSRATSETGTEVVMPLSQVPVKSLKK
Procedure: (1) PAF Radioreceptor Binding Assay (PAF Binding)
Platelet rich plasma is prepared by centrifugation of citrate-treated dog blood. Acidification to pH 6.5 with 0.15M citric acid and centrifugation for 10 minutes at 1000×g yields a platelet pellet which is then washed by resuspension in EDTA-Phosphate Buffered Saline (PBS) and recentrifuged. The washed platelet preparation is adjusted to 2×10^7 platelets/50 μl in 0.1% bovine serum albumin-PBS.
To a 400 μl microfuge tube containing 50 μl silicone oil (specific gravity 1.023) is added buffer, PAF standard or analog, or an extract to bring the aqueous volume to 150 μl. 50 μl of ^3 H-PAF (10,000 cpm, 45 Ci/mM) is added followed by 2×10^7 dog platelets. After mixing, incubating for 10 minutes at room temperature, and centrifuging for 1 minute in a Beckman Microfuge B (8000×g), the pellet is removed by clipping off the tip of the tube, the platelets are solubilized with 200 μl of 50% methanol and counted in 10 ml of Aquasol. […] Results obtained with representative copounds of the present invention in this assay are summarized hereinafter in Tables I and II. IC50 is drug concentration (μMolar) which inhibits PAF binding to dog platelets by 50%.

TXA2 synthase = target: T2, TXA2 synthase (Homo sapiens, UniProt P24557); assay: Thromboxane Synthase Inhibition, In Vitro (TXA2 Synth. Inhib.); assay type: biochemical; conditions: human platelet microsomes, 10 μM 14C-PGH2, 22° C., 2 min
T2 construct: using microsomal fractions from human platelets as enzyme source; from tissue; host or cells: microsomal fractions from human platelets
T2 sequence (P24557 1-533): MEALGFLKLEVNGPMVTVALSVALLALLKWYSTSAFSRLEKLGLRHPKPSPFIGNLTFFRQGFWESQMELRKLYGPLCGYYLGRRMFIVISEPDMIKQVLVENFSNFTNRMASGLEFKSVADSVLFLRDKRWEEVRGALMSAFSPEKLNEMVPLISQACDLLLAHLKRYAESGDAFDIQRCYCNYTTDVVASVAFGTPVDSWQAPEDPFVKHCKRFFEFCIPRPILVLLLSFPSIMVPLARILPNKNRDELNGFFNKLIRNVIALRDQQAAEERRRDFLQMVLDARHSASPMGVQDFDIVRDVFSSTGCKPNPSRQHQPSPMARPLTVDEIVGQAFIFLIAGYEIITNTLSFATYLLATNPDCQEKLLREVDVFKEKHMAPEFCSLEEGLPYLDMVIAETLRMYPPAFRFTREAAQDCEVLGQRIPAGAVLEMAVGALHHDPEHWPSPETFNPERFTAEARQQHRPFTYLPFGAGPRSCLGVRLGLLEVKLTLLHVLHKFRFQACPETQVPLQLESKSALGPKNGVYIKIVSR
Procedure: (2) Thromboxane Synthase Inhibition, In Vitro (TXA2 Synth. Inhib.)
TXA2 synthase activity is measured by following the conversion of ^14 C-prostaglandin endoperoxide (PGH2) to ^14 C-thromboxane A2 (TXA2) using microsomal fractions from human platelets as enzyme source. In the aqueous incubation medium, the TXA2 decomposes rapidly into TXB2. The amount of TXA2 synthase is adjusted so that under the conditions of the assay approximately 80-90% of the substrate, PGH2, is converted to product in control tubes. To prepare ^14 C-PGH2, ^14 C-AA (50-60 mCi/mmole; Rose Chem.) is incubated with sheep seminal vesicular gland microsomes for 1.5 minutes at 37° C. and then the ^14 C-PGH2 is extracted with diethylether, purified on columns oof Sephadex LH-20 or silicic acid, and stored in acetone at -70° C. Incubations are done as follows. Sufficient ^14 C-PGH2 to yield a final substrate concentration of 10 μM (30,000 cpm) is added to the incubation tubes and then the acetone is removed under nitrogen. The tubes are placed in an ice bath and then 215 μl of ice cold phosphate buffered saline, 10 μl of ethanol (control) or of test drug in ethanol, and 25 μl of the microsomal suspension are added with mixing in that order as rapidly as possible. The tubes are incubated at 22° C. for 2 minutes, the reaction is stopped and then the radioactive products and the unconverted PGH2 are extracted and analyzed by thin layer chromatography. […] The amount of ^14 C-PGH2 converted to products was used as a measure of TXA2 synthase activity. Inhibitors were tested initially at a final concentration 100 μM. Results obtained with representative compounds of the present invention in this assay are summarized hereafter in Tables I and II. IC50 is the drug concentration (μMolar) which inhibits TXA2 activity by 50%.

PAF [3] = assay: Inhibition of PAF-Induced Platelet Aggregation (Inhib. of PAF Platelet Reduction); assay type: in vivo, guinea pig; conditions: Cavia porcellus, iv, 3 mg/kg i.v.
Procedure: (5) Inhibition of PAF-Induced Platelet Aggregation (Inhib. of PAF Platelet Reduction)
Guinea pigs (anesthetized) are set up to withdraw blood for platelet counting. The animal is allowed to stabilize after completion of surgical procedures. The carotid catheter is allowed to bleed back blood and then is filled, prior to each sample withdrawal with sodium citrate 3.8% (0.15 ml). Blood (0.25 ml) is withdrawn 30 seconds prior to the PAF challenge and at 15, 30 and 60 seconds after the PAF challenge. This first PAF challenge is used as the control, assuming sufficient decreases in platelet count are observed. The amount of PAF used will be approximately 50 ng/kg, however, this can be increased to achieve the desired decreases in platelet count. Fifteen minutes after the control PAF challenge, intravenous drug dosing begins, with animals being dosed at 30 minute intervals; PAF challenge follows 15 minutes after each intravenous dose. Three intravenous drug doses are used in each experiment. Initial drug doses are 1, 3 and 10 mg/kg i.v. Inhibition of PAF platelet reduction at 3 mg/kg i.v. for representative compounds of the invention are summarized hereinafter in Tables I and II. Percent inhibition is [formula]

PAF [4] = assay: Inhibition of PAF-Induced Rat Skin Wheal Test (Inhib. of PAF Skin Wheal); assay type: in vivo, Sprague-Dawley rats; conditions: 5 mg/kg i.v., 5 ng PAF intradermally
Procedure: (4) Inhibition of PAF-Induced Rat Skin Wheal Test (Inhib. of PAF Skin Wheal)
This test evaluates the ability of compounds to inhibit PAF-induced increases in vascular permeability in the skin of Sprague-Dawley rats. PAF induces a dose-dependent skin wheal response in this system over a dose range of 0.0001 to 1 μg/0.05 ml injection. The profound vasoactive activity of PAF is emphasized by the fact that the maximum skin wheal response is considerably greater than that obtained with LTE and an EC50 response is elicited at a 10-fold lower dose. […] Thirty minutes later the animals are sacrificed and the increase in vascular permeability induced by the migration of dye into the injection point in the skin is determined. For this purpose, rats are sacrificed by cervical dislocation,the dorsal skin is removed, the long and short axis of each animal is measured with a metric vernier caliper and the average diameter is obtained. Results obtained are measured as % of migration of dye as compared to untreated animals. More specifically, results are measured as a percent inhibition of the diameters of the wheals formed in a treated animals as compared to untreated animals. […]

Row | Structure (SMILES) | No. Animals with Abnormal Beat/No. Tested (LTD4) | ↑ABP (increase in blood pressure after LTD4) (LTD4) | ↓ABP (decrease in blood pressure after LTD4) (LTD4) | inhibition in vivo at 1 mg/kg (PAF [1]) | IC50 [2] | IC50 (TXA2 synthase) | inhibition in vivo at 3 mg/kg (PAF [3]) | inhibition of PAF skin wheal (PAF [4])
1 | CCCc1c(OCCCc2nnnn2CCCc2cccnc2)ccc(C(C)=O)c1O [3 3, 1-[2-Hydroxy-3-propyl-4-[3-[1-[3-(3-pyridinyl)propyl]-1H-tetrazol-5-yl]propoxy]phenyl]ethanone] | 1/4 | 14 ± 5 Δmm Hg | -23 ± 10 Δmm Hg | – | – | – | – | –
2 | CCCc1c(OCCCCCc2nnnn2CCCc2cccnc2)ccc(C(C)=O)c1O [5 3, 1-[2-hydroxy-3-propyl-4-[5-[1-[3-(3-pyridinyl)propyl]-1H-tetrazol-5-yl]pentyloxy]phenyl]ethanone] | 0/4 | 13 ± 8 Δmm Hg | -20 ± 9 Δmm Hg | – | – | – | – | –
3 | CCCc1c(OCCCc2nnnn2CCCCc2cccnc2)ccc(C(C)=O)c1O [H H 3 4 3-pyridyl, 1-[2-Hydroxy-3-propyl-4-[3-[1-[4-(3-pyridinyl)butyl]-1H-tetrazol-5-yl]propoxy]phenyl]ethanone] | – | – | – | 59 ± 12% | 450 nM | 100 to 1000 nM | 40% | –
4 | CCCc1c(OCCCCc2nnnn2CCCn2ccnc2)ccc(C(C)=O)c1O [H H 4 3 1-imidazolyl, 1-[2-Hydroxy-3-propyl-4-[4-[1-[3-(1H-imidazol-1-yl)propyl]-1H-tetrazol-5-yl]butoxy]phenyl]ethanone] | – | – | – | 8 ± 8% | 175 nM | 100 to 1000 nM | 3% | –
5 | CCCc1c(OCCCCc2nnnn2CCCc2cccnc2)ccc(C(C)=O)c1O [H H 4 3 3-pyridyl, 1-[2-Hydroxy-3-propyl-4-[4-[1-[3-(3-pyridinyl)propyl]-1H-tetrazol-5-yl]butoxy]phenyl]ethanone] | – | – | – | 99% | 125 nM | 100 to 1000 nM | – | 65±3%
6 | CCCc1c(OCCCCCc2nnnn2CCCc2cccnc2)ccc(C(C)=O)c1O [H H 5 3 3-pyridyl, 1-[2-hydroxy-3-propyl-4-[5-[1-[3-(3-pyridinyl)propyl]-1H-tetrazol-5-yl]pentyloxy]phenyl]ethanone] | – | – | – | 96 ± 1% | 150 nM | 100 to 1000 nM | 12% | –
7 | CCCc1c(OCCCCCc2nnnn2CCCCc2cccnc2)ccc(C(C)=O)c1O [H H 5 4 3-pyridyl, 1-[2-Hydroxy-3-propyl-4-[5-[1-[4-(3-pyridinyl)butyl]-1H-tetrazol-5-yl]pentyloxy]phenyl]ethanone] | – | – | – | 58 ± 14% | 275 nM | 100 to 1000 nM | 0% | –

— patent publication US4663332A, “5-substituted N-alkylated tetrazoles” (Hoffman-La Roche Inc., priority 1985, dated 1987)
